Results: PMC5794489 (Biochemical pharmacology, 2017)
“Also recorded” adds a separate entry of the source. *1 amine or outer side, *2 acyl side, *3 side chain or, on linkers, in order; H or OH if unused. Where a SMILES comes first, the peptide text is derived from it. [ ]: non-standard residue; d: D form. X1 = O=C([C@H]1CCC[C@@H]1N[*:1])[*:2]; X2 = O=C([C@H]1CNC[C@@H]1N[*:1])[*:2]; Aib = CC(C)(N)C(=O)O

Experiments:
human GLP-1R [1] = assay: Stimulus bias, operational model of agonism, Δlog; format: cell-based; settings: bias relative to GLP-1; FlpInCHO; mean ± SEM, three to four experiments
human GLP-1R [2] = settings: FlpIn CHO cells; cited from earlier work
human GLP-1R [3] = target: T1, human GLP-1R (Homo sapiens, UniProt P43220); assay: Radioligand competition binding on whole GLP-1R FlpInCHO cells; settings: GLP-1R in FlpIn CHO cells
T1 sequence (P43220 24-463): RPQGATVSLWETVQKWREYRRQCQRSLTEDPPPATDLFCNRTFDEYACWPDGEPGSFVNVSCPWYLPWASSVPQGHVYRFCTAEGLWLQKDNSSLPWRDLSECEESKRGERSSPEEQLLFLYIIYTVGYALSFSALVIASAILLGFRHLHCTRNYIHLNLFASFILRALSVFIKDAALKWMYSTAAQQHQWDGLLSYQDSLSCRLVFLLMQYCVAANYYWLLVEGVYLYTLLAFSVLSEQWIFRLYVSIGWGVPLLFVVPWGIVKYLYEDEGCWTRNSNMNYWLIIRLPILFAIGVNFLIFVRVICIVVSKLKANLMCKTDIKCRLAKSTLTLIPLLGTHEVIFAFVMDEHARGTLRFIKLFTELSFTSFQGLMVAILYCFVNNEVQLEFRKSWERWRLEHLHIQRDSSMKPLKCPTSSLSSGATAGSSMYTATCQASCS

human GLP-1R [4] = target: T1, human GLP-1R; assay: ERK1/2 phosphorylation; format: cell-based; settings: read-out: pERK1/2 Emax
human GLP-1R [5] = target: T1, human GLP-1R; assay: β-Arrestin-2 recruitment BRET assay; settings: for β-arrestin-2 recruitment, result in words: FlpInCHO BRET, native β-arrestin-2; for Emax: read-out: β-Arrestin-2 Emax
human GLP-1R [6] = target: T1, human GLP-1R; assay: cAMP accumulation in GLP-1R FlpInCHO cells; format: cell-based; settings: Flp-In-CHO, read-out: cAMP Emax
human GLP-1R [7] = target: T1, human GLP-1R; assay: Intracellular calcium mobilization; format: cell-based; settings: for Emax: read-out: iCa2+ Emax
human GLP-1R [8] = target: T1, human GLP-1R; assay: β-Arrestin-1 recruitment BRET assay; settings: for Emax: read-out: β-Arrestin-1 Emax

| Compound | Δlog(τ/KA) βArr1 vs pERK1/2 (human GLP-1R [1]) | Δlog(τ/KA) βArr2 vs cAMP (human GLP-1R [1]) | Δlog(τ/KA) βArr2 vs pERK1/2 (human GLP-1R [1]) | Emax (human GLP-1R [4]) [%] | β-arrestin-2 recruitment, result in words (human GLP-1R [5]) | Emax (human GLP-1R [6]) [%] | Δlog(τ/KA) Ca2+ vs cAMP (human GLP-1R [1]) | Emax (human GLP-1R [7]) [%] | Δlog(τ/KA) pERK1/2 vs cAMP (human GLP-1R [1]) | also measured |
| --- | --- | --- | --- | --- | --- | --- | --- | --- | --- | --- |
| CC[C@H](C)[C@H](NC(=O)[C@H](Cc1ccccc1)NC(=O)[C@H](CCC(=O)O)NC(=O)[C@H]1CNC[C@@H]1NC(=O)[C@H](C)NC(=O)[C@H](C)NC(=O)[C@H](CCC(N)=O)NC(=O)[C@H]1CCC[C@@H]1NC(=O)[C@H](CCC(=O)O)NC(=O)[C@H](CC(C)C)NC(=O)[C@H](Cc1ccc(O)cc1)NC(=O)[C@H]1CCC[C@@H]1NC(=O)[C@H](CO)NC(=O)[C@@H](NC(=O)[C@H](CC(=O)O)NC(=O)[C@H](CO)NC(=O)[C@@H](NC(=O)[C@H](Cc1ccccc1)NC(=O)[C@@H](NC(=O)CNC(=O)[C@H](CCC(=O)O)NC(=O)[C@H](C)NC(=O)[C@@H](N)Cc1c[nH]cn1)[C@@H](C)O)[C@@H](C)O)C(C)C)C(=O)N[C@H]1CCC[C@@H]1C(=O)N[C@@H](Cc1c[nH]c2ccccc12)C(=O)N[C@@H](CC(C)C)C(=O)N[C@H](C(=O)N[C@H]1CNC[C@@H]1C(=O)NCC(=O)N[C@@H](CCCNC(=N)N)C(=O)NCC(N)=O)C(C)C [P3] | −0.1 ± 0.3 | 0.5 ± 0.3 | −0.6 ± 0.2 |  |  |  |  |  |  |  |
| exendin-4 |  |  |  |  |  |  |  |  |  | bias ERK1/2 phosphorylation over cAMP accumulation, in words (human GLP-1R [2]): does not exhibit bias toward ERK1/2 phosphorylation |
| CC[C@H](C)[C@H](NC(=O)[C@H](Cc1ccccc1)NC(=O)[C@H](CCC(=O)O)NC(=O)[C@H]1CNC[C@@H]1NC(=O)[C@H](C)NC(=O)[C@H](C)NC(=O)[C@H](CCC(N)=O)NC(=O)[C@H]1CCC[C@@H]1NC(=O)[C@H](CCC(=O)O)NC(=O)[C@H](CC(C)C)NC(=O)[C@H](Cc1ccc(O)cc1)NC(=O)[C@H]1CCC[C@@H]1NC(=O)[C@H](CO)NC(=O)[C@@H](NC(=O)[C@H](CC(=O)O)NC(=O)[C@H](CO)NC(=O)[C@@H](NC(=O)[C@H](Cc1ccccc1)NC(=O)[C@@H](NC(=O)CNC(=O)[C@H](CCC(=O)O)NC(=O)[C@H](C)NC(=O)[C@@H](N)Cc1c[nH]cn1)[C@@H](C)O)[C@@H](C)O)C(C)C)C(=O)N[C@H]1CCC[C@@H]1C(=O)N[C@@H](Cc1c[nH]c2ccccc12)C(=O)N[C@@H](CC(C)C)C(=O)N[C@H](C(=O)N[C@@H](CCCCN)C(=O)NCC(=O)N[C@@H](CCCNC(=N)N)C(=O)NCC(N)=O)C(C)C [P9] (H-HAEGTFTSDVS[X1]YLE[X1]QAA[X2]EFI[X1]WLVKGRG-NH2) | −0.1 ± 0.5 |  |  | 73 ± 9 | weak β-arrestin-2 responses | 107 ± 5 |  |  |  | reduction in affinity relative to GLP-1 (human GLP-1R [3]): ~ 10 fold; calcium mobilization, result in words (human GLP-1R [7]; FlpIn CHO human GLP-1R): essentially abolished calcium mobilization |
| oxyntomodulin (HSQGTFTSDYSKYLDSRRAQDFVQWLMNTKRNRNNIA; Oxyntomodulin; UniProt P01275 53-89, looked up) |  |  |  |  |  |  |  |  |  | bias ERK1/2 phosphorylation over cAMP accumulation, in words (human GLP-1R [2]): biases the GLP-1R toward ERK1/2 phosphorylation over cAMP accumulation |
| CC[C@H](C)[C@H](NC(=O)[C@H](Cc1ccccc1)NC(=O)[C@H](CCC(=O)O)NC(=O)[C@H]1CNC[C@@H]1NC(=O)[C@H](C)NC(=O)[C@H](C)NC(=O)[C@H](CCC(N)=O)NC(=O)[C@H]1CCC[C@@H]1NC(=O)[C@H](CCC(=O)O)NC(=O)[C@H](CC(C)C)NC(=O)[C@H](Cc1ccc(O)cc1)NC(=O)[C@H]1CCC[C@@H]1NC(=O)[C@H](CO)NC(=O)C(C)(C)NC(=O)[C@H](CC(=O)O)NC(=O)[C@H](CO)NC(=O)[C@@H](NC(=O)[C@H](Cc1ccccc1)NC(=O)[C@@H](NC(=O)CNC(=O)[C@H](CCC(=O)O)NC(=O)C(C)(C)NC(=O)[C@@H](N)Cc1c[nH]cn1)[C@@H](C)O)[C@@H](C)O)C(=O)N[C@H]1CCC[C@@H]1C(=O)N[C@@H](Cc1c[nH]c2ccccc12)C(=O)N[C@@H](CC(C)C)C(=O)N[C@H](C(=O)N[C@H]1CNC[C@@H]1C(=O)NCC(=O)N[C@@H](CCCNC(=N)N)C(=O)NCC(N)=O)C(C)C [P4] (H-H[Aib]EGTFTSD[Aib]S[X1]YLE[X1]QAA[X2]EFI[X1]WLV[X2]GRG-NH2) |  |  |  | 81 ± 8 | weak β-arrestin-2 responses; also recorded: no measurable signal | 97 ± 7 | −0.2 ± 0.2 | 90 ± 40 |  | β-arrestin-1 recruitment, result in words (human GLP-1R [8]; FlpInCHO BRET): no measurable signal; further reduction in affinity relative to other α/β-peptides in this set (human GLP-1R [3]): 10 fold |
| CC[C@H](C)[C@H](NC(=O)[C@H](Cc1ccccc1)NC(=O)[C@H](CCC(=O)O)NC(=O)[C@H]1CNC[C@@H]1NC(=O)[C@H](C)NC(=O)[C@H](C)NC(=O)[C@H](CCC(N)=O)NC(=O)CNC(=O)[C@H](CCC(=O)O)NC(=O)[C@H](CC(C)C)NC(=O)[C@H](Cc1ccc(O)cc1)NC(=O)[C@H](CO)NC(=O)[C@H](CO)NC(=O)[C@@H](NC(=O)[C@H](CC(=O)O)NC(=O)[C@H](CO)NC(=O)[C@@H](NC(=O)[C@H](Cc1ccccc1)NC(=O)[C@@H](NC(=O)CNC(=O)[C@H](CCC(=O)O)NC(=O)[C@H](C)NC(=O)[C@@H](N)Cc1c[nH]cn1)[C@@H](C)O)[C@@H](C)O)C(C)C)C(=O)N[C@H]1CCC[C@@H]1C(=O)N[C@@H](Cc1c[nH]c2ccccc12)C(=O)N[C@@H](CC(C)C)C(=O)N[C@H](C(=O)N[C@H]1CNC[C@@H]1C(=O)NCC(=O)N[C@@H](CCCNC(=N)N)C(=O)NCC(N)=O)C(C)C [P1] (H-HAEGTFTSDVSSYLEGQAA[X2]EFI[X1]WLV[X2]GRG-NH2) | 0.0 ± 0.2 | 0.5 ± 0.2 | −0.1 ± 0.3 | 112 ± 8 |  |  | 0.4 ± 0.1 | 89 ± 8 | 0.5 ± 0.2 | Emax (human GLP-1R [8]): 85 ± 7%; Emax (human GLP-1R [5]): 108 ± 5%; Δlog(τ/KA) βArr1 vs Ca2+ (human GLP-1R [1]): −0.1 ± 0.2; Δlog(τ/KA) βArr1 vs cAMP (human GLP-1R [1]): 0.4 ± 0.1; Δlog(τ/KA) βArr2 vs Ca2+ (human GLP-1R [1]): −0.2 ± 0.2 |
| CC[C@H](C)[C@H](NC(=O)[C@H](Cc1ccccc1)NC(=O)[C@H](CCC(=O)O)NC(=O)[C@H](CCCCN)NC(=O)[C@H](C)NC(=O)[C@H](C)NC(=O)[C@H](CCC(N)=O)NC(=O)CNC(=O)[C@H](CCC(=O)O)NC(=O)[C@H](CC(C)C)NC(=O)[C@H](Cc1ccc(O)cc1)NC(=O)[C@H](CO)NC(=O)[C@H](CO)NC(=O)C(C)(C)NC(=O)[C@H](CC(=O)O)NC(=O)[C@H](CO)NC(=O)[C@@H](NC(=O)[C@H](Cc1ccccc1)NC(=O)[C@@H](NC(=O)CNC(=O)[C@H](CCC(=O)O)NC(=O)C(C)(C)NC(=O)[C@@H](N)Cc1c[nH]cn1)[C@@H](C)O)[C@@H](C)O)C(=O)N[C@@H](C)C(=O)N[C@@H](Cc1c[nH]c2ccccc12)C(=O)N[C@@H](CC(C)C)C(=O)N[C@H](C(=O)N[C@@H](CCCCN)C(=O)NCC(=O)N[C@@H](CCCNC(=N)N)C(=O)NCC(N)=O)C(C)C [P6] | 0.5 ± 0.3 | −0.1 ± 0.2 | −0.3 ± 0.2 | 80 ± 7 |  |  | −0.1 ± 0.2 | 78 ± 5 | 0.1 ± 0.2 | Emax (human GLP-1R [8]): 72 ± 4%; Emax (human GLP-1R [5]): 82 ± 5%; Δlog(τ/KA) βArr1 vs cAMP (human GLP-1R [1]): 0.4 ± 0.1; Δlog(τ/KA) βArr2 vs Ca2+ (human GLP-1R [1]): 0.0 ± 0.2 |
| CC[C@H](C)[C@H](NC(=O)[C@H](Cc1ccccc1)NC(=O)[C@H](CCC(=O)O)NC(=O)[C@H]1CNC[C@@H]1NC(=O)[C@H](C)NC(=O)[C@H](C)NC(=O)[C@H](CCC(N)=O)NC(=O)[C@H]1CCC[C@@H]1NC(=O)[C@H](CCC(=O)O)NC(=O)[C@H](CC(C)C)NC(=O)[C@H](Cc1ccc(O)cc1)NC(=O)[C@H]1CCC[C@@H]1NC(=O)[C@H](CO)NC(=O)[C@@H](NC(=O)[C@H](CC(=O)O)NC(=O)[C@H](CO)NC(=O)[C@@H](NC(=O)[C@H](Cc1ccccc1)NC(=O)[C@@H](NC(=O)CNC(=O)[C@H](CCC(=O)O)NC(=O)[C@H](C)NC(=O)[C@@H](N)Cc1c[nH]cn1)[C@@H](C)O)[C@@H](C)O)C(C)C)C(=O)N[C@@H](C)C(=O)N[C@@H](Cc1c[nH]c2ccccc12)C(=O)N[C@@H](CC(C)C)C(=O)N[C@H](C(=O)N[C@@H](CCCCN)C(=O)NCC(=O)N[C@@H](CCCNC(=N)N)C(=O)NCC(N)=O)C(C)C [P8] (H-HAEGTFTSDVS[X1]YLE[X1]QAA[X2]EFIAWLVKGRG-NH2) | 0.0 ± 0.3 |  |  | 80 ± 8 | weak β-arrestin-2 responses | 83 ± 5 |  |  | 0.7 ± 0.3 | reduction in affinity relative to GLP-1 (human GLP-1R [3]): ~ 10 fold |
